In patent US20180161338A1, “RETOSIBAN FOR THE TREATMENT OF PRE-TERM LABOUR” (priority 2014, published 2018):
Bridge positions count the residues as written; N and C are the ends. Square brackets hold non-standard residues; d marks the D form. Peptide text beside a SMILES is read from it. Orn = NCCC[C@H](N)C(=O)O; Mpa = O=C(O)CCS

Key:
[1] = tested on: women pregnant with twins; conditions: prophylactic administration; cited from earlier work
[2] = tested on: pre-term labour in singleton pregnancies; conditions: cited from earlier work
Human myometrial strips = assay: Maximal contractile responses to KCl and oxytocin of myometrial strips cultured under low or high stretch; type: cell-based; conditions: for median fold change with retosiban, maximal response to KCl / median fold change with retosiban, maximal response to oxytocin: retosiban versus vehicle
Method: Human myometrial strips (obtained from non-labouring patients undergoing routine elective caesarean section at term) were cultured in medium (phenol red free DMEM supplemented with 10% charcoal stripped foetal calf serum, 2 mM L-glutamine and antibiotics) in an incubator (37° C., humidified 5% CO2) under conditions of low stretch (0.6 g mass) or high stretch (2.4 g mass). Half of the strips in both the low and high stretch groups were incubated with […] retosiban (diluted in DMSO). The remaining strips (paired samples from the same patient) were incubated DMSO.
After 20-24 hours incubation, myometrial contractility of the strips was studied as described previously (J Physiol 2012; 590(Pt9): 2081-2093). Briefly, tension was initially set at 2 g for all strips. Strips were washed with fresh Krebs after 15 and 30 min and the tension reset to 2 g. After a further hour of washes (every 15 min), the issue was treated with 50 mM KCl (50 mM, 5-7 min). This was washed, the tissue allowed to recover and then a cumulative concentration response curve to oxytocin (up to 100 nM) was obtained. Maximal responses to KCl and oxytocin were normalized to strip wet weight. The mean normalized responses of duplicate strips were calculated for the four different groups (low stretch with retosiban, low stretch with vehicle, high stretch with retosiban, high stretch with vehicle). Effects were expressed as fold change i.e. the ratio of normalized responses in the experimental and control conditions from different strips obtained from the same person. pEC50 values were calculated using analysis of the area under the curve for each concentration of oxytocin.
Since the data were expressed as fold changes, all ratios were log transformed and normal distribution following log transformation was assessed using the Sharpiro-Wilk test. The null hypothesis was that there was no change in the mean normalized responses with a given intervention. […] Continuous associations were assessed using linear regression of log transformed fold changes. For the analysis of pEC50 Student's paired t-test was used.

[3] = tested on: asymptomatic women with a short cervix pregnant with a single foetus; conditions: daily administration; cited from earlier work
[4] = tested on: pre-term labour in twin pregnancies; conditions: isolated reports, not placebo controlled; cited from earlier work

CCCCCC(=O)O[C@]1(C(C)=O)CC[C@H]2[C@@H]3CCC4=CC(=O)CC[C@]4(C)[C@H]3CC[C@@]21C [17-α hydroxyprogesterone caproate]
reduction in the frequency of pre-term birth [1]: no reduction

CC[C@H](C)[C@@H]1C(=O)N[C@H](C2Cc3ccccc3C2)C(=O)N1[C@@H](C(=O)N1CCOCC1)c1coc(C)n1 [retosiban, (3R,6R)-3-(2,3-dihydro-1H-inden-2-yl)-1-[(1R)-1-(2-methyl-1,3-oxazol-4-yl)-2-(morpholin-4-yl}-2-oxoethyl]-6-[(1S)-1-methylpropyl]-2,5-piperazinedione]
increase in days to delivery relative to placebo (mean) ([2]; phase II clinical study): 8.2 days
response rate or percentage of women achieving uterine quiescence ([2]; ≤4 contractions/h with no change in cervical dilation >1 cm at 5-6 h, depending upon route of administration/dose): 50-57%
median fold change with retosiban, maximal response to KCl (Human myometrial strips; high stretch (2.4 g), n=12): 0.74
median fold change with retosiban, maximal response to oxytocin (Human myometrial strips; high stretch (2.4 g), n=12): 0.71
median fold change with retosiban, maximal response to KCl (Human myometrial strips; low stretch (0.6 g), n=12): 1.00
median fold change with retosiban, maximal response to oxytocin (Human myometrial strips; low stretch (0.6 g), n=12): 0.97
relationship between the effect of stretch and the effect of retosiban on responses to KCl and oxytocin (Human myometrial strips; per patient, FIG. 3): the greater was the reduction in response induced by retosiban
fold change with stretch (high stretch compared with low stretch), maximal response to KCl (Human myometrial strips; strips incubated with 1 mM retosiban 20-24 h, retosiban removed, 50 mM KCl, n=12): 1.14
fold change with stretch (high stretch compared with low stretch), maximal response to oxytocin (Human myometrial strips; strips incubated with 1 mM retosiban 20-24 h, retosiban removed, oxytocin up to 100 nM, n=12): 1.14

CC(=O)[C@H]1CC[C@H]2[C@@H]3CCC4=CC(=O)CC[C@]4(C)[C@H]3CC[C@]12C [vaginal progesterone, progesterone]
reduction of the frequency of birth before 34 weeks of gestation [3]: more than 40%

CCOc1ccc(C[C@H]2NC(=O)CCSSC[C@@H](C(=O)N3CCC[C@H]3C(=O)N[C@@H](CCCN)C(=O)NCC(N)=O)NC(=O)[C@H](CC(N)=O)NC(=O)[C@H]([C@@H](C)O)NC(=O)[C@H]([C@@H](C)CC)NC2=O)cc1 [atosiban] ([Mpa][dY](Et)ITNCP[Orn]G-NH2; disulfide 1-6)
treatment of pre-term labour in twin pregnancies [4]: used successfully
